In paper PMC7048302, “Deep Learning-driven research for drug discovery: Tackling Malaria” (PLoS Computational Biology, 2020):
“Also recorded” adds a separate entry of the source. Like-named read-outs stand apart in the source and are kept apart here.

Key:
[1] = tested on: P. falciparum 3D7 strain (chloroquine sensitive); settings: S3 File, continuous QSAR dataset; ref ChEMBL CHEMBL2366922 [25]; cited from earlier work
[2] = tested on: mouse embryonic fibroblasts (NIH/3T3 cell line); settings: S4 File, continuous QSAR dataset; ref ChEMBL CHEMBL614822 [25]; cited from earlier work
[3] = Cytotoxicity assay (MTT reduction); type: cell-based, monkey; settings: monkey, COS-7 cells (fibroblast-like monkey kidney cell line); 72 hours, mean ± SD of three independent assays
Procedure: (§1) Cytotoxicity assays used fibroblast-like cell lines derived from monkey kidney tissue (COS7 cells), grown in DMEM medium supplemented with 10% fetal bovine serum and 0.05 mg/mL gentamicin in atmosphere containing 5% CO2 at 37°C. […] After an incubation period (72 hours), cell viability analysis was performed via the MMT reduction method (3- [4,5- dimethyl-thiazol-2-yl] -2,5-diphenyltetrazolium […]).
(§2) The EC50 and CC50 values were calculated by plotting the Log doses vs. inhibition (expressed as a percentage relative to the control) in GraphPad Prism v.6 (GraphPad Software, La Jolla California USA, www.graphpad.com).

[4] = tested on: P. falciparum 3D7 strain; assay: Antiplasmodial assay (SYBR Green), sensitive strain; type: cell-based, Plasmodium falciparum; settings: for EC50: Plasmodium falciparum; for antiplasmodial activity (concentration range in words): asexual blood stages, 3D7 and W2 strains; for SI^a: Selectivity index calculated by COS7 CC50/3D7 EC50
Procedure: (§3) The 3D7 and W2 strains were cultured in RPMI 1640 medium supplemented with 0.05 mg/mL gentamycin, 38.4 mM HEPES, 0.2% sodium bicarbonate, and 10% O^+ human serum, as previously described in standardized protocol. Then, erythrocytes were added to the culture to obtain a 5% of hematocrit, and incubated at 37°C under 5% CO2 atmosphere, with daily exchange of medium. The parasitemia was monitored daily in smears, stained with Giemsa. Synchronic cultures in ring stage were obtained by two consecutive treatments, at 48h intervals with a 5% solution of D-sorbitol.
(§4) Parasites synchronized at the ring stage, with 0.5% parasitemia and 2% hematocrit, were distributed in the wells of a 96-well plate. The compounds were tested in triplicates using 12-point dilution series (0.019 μM– 40 μM) over 72h. Chloroquine and pyrimethamine were used as positive controls. The in vitro susceptibility of parasite to tested drugs was measured by SYBR Green according to Hartwig and colleagues. Briefly, 100 μL of lysis buffer (20 mM Tris, 5 mM EDTA, 0,008% wt/vol saponin, 0,08% vol/vol Triton X-100 and 0.4 μL/mL of SYBR Green) were added in each well of a new black 96-well plate and 100 μL of parasite culture incubated with drugs were transferred. After homogenization, the plates were incubated for 1h in the dark. Fluorescence was measured at 490 nm excitation and 540 nm emission (CLARIOstar, Labtech BMG).
as §2

[5] = tested on: P. falciparum W2 strain; assay: Antiplasmodial assay (SYBR Green), multi-drug-resistant strain; type: cell-based, Plasmodium falciparum; settings: for EC50: Plasmodium falciparum, read-out: EC50 (PfW2); for SI^b: Selectivity index calculated by COS7 CC50/W2 EC50
Procedure: as §3, §4, §2

[6] = tested on: COS-7 cells; assay: Cytotoxicity assay (MTT reduction); type: cell-based, monkey; settings: in words
Procedure: as §1, §2

[7] = 3D7, asexual blood stage, 72h, mean ± SD of three independent assays, read-out: EC50 (Pf3D7)
[8] = W2, asexual blood stage, 72h, mean ± SD of three independent assays
[9] = 3D7, asexual blood stages of sensitive and multi-drug-resistant strains, read-out: EC50

| EC50 [4, 7] | EC50 [5, 8] | Structure (SMILES) | pEC50 [1] | CC50 at 72 h [3] | SI^b [5] | other results |
| --- | --- | --- | --- | --- | --- | --- |
| – | – | CC1CCC2C(C)C(O)OC3OC4(C)CCC1C32OO4 (centres unmarked) | 10.00 | – | – | – |
| – | – | Cn1cncc1C(O)C1=Cc2cccnc2C(N2CCN(C(=O)NC(C)(C)C)CC2)c2ccc(Cl)cc21 (centres unmarked) | – | – | – | pCC50 [2]: 9.30 |
| – | – | Cn1cncc1C(OCc1ccc(C#N)cc1C#Cc1ccccc1)c1ccc(C#N)cc1 (centres unmarked) | – | – | – | pCC50 [2]: 10.00 |
| – | – | COc1ccc(-c2ccc(-c3ccc(C(=N)N)cc3)o2)cc1 | 9.86 | – | – | – |
| > 40000 nM | > 40000 nM | Nc1cc(N)nc(N2CCOCC2)n1 [LabMol-150] | – | > 200000 nM | – | – |
| 1450 ± 524 nM | 509 ± 177 nM | Oc1ccccc1C1N=C(c2ccccc2)N=C(c2ccccc2)N1 (centres unmarked) [LabMol-149, 2-(4,6-diphenyl-1,2-dihydro-1,3,5-triazin-2-yl)phenol] | – | > 100000 nM | >196 | cytotoxicity in mammalian cells [6]: low cytotoxicity; EC50 [4, 9]: < 500 nM; antiplasmodial activity (concentration range in words) [4]: submicromolar and low nanomolar range; also recorded: activity at submicromolar concentrations |
| – | – | Cc1ccc(-c2ccc(-c3ccc(C(=N)N)cc3)o2)cc1 | 10.24 | – | – | – |
| 1910 ± 292 nM | 1620 ± 321 nM | CC(=O)N(C1=C(N2CCOCC2)C(=O)c2ccccc2C1=O)c1ccc(C(=O)O)cc1 [LabMol-151, 4-{N-[3-(morpholin-4-yl)-1,4-dioxo-1,4-dihydronaphthalen-2-yl]acetamido}benzoic acid] | – | 141000 ± 11200 nM | 87.1 | cytotoxicity in mammalian cells [6]: low cytotoxicity; SI^a [4]: 73.7; antiplasmodial activity (concentration range in words) [4]: submicromolar and low nanomolar range; also recorded: activity at submicromolar concentrations |
| 37 ± 7 nM | 18200 ± 4540 nM | CCc1nc(N)nc(N)c1-c1ccc(Cl)cc1 [Pyrimethamine, pyrimethamine, reference compound] | – | > 100000 nM | 5.5 | SI^a [4]: 2,702 |
| – | – | N=C(N)c1ccc(-c2ccc(-c3ccc(F)cc3)o2)cc1 | 11.02 | – | – | – |
| – | – | CCN(CC)CCCC(C)Nc1ccnc2cc(Cl)ccc12 (centres unmarked) [Chloroquine, chloroquine, reference compound] | – | – | – | EC50 ([4]; 3D7, 72 h, read-out: EC50 (Pf3D7)): 11 ± 1 nM; EC50 ([5]; W2, 72 h): 173 ± 20 nM |
| 49 ± 29 nM | 78 ± 14 nM | Fc1cccc(Nc2nc(NCC3CCCO3)c3ccccc3n2)c1 (centres unmarked) [LabMol-152, N2-(3-fluorophenyl)-N4-[(oxolan-2-yl)methyl]quinazoline-2,4-diamine] | – | 16700 ± 10300 nM | 214.1 | cytotoxicity in mammalian cells [6]: low cytotoxicity; EC50 [4, 9]: < 500 nM; SI^a [4]: 340.8; antiplasmodial activity (concentration range in words) [4]: submicromolar and low nanomolar range |
| > 40000 nM | > 40000 nM | CC1(C)NC(C2=NOC(C)(C)N2)=NO1 [LabMol-148] | – | > 200000 nM | – | – |
